Patent US4371537A, “Sulfur-substituted phenoxypyridines having antiviral activity” (The Dow Chemical Company, priority 1981, dated 1983)

Tests used:
[1] = Cytotoxicity in tissue culture testing (HeLa monolayers); format: cell-based; conditions: human; HeLa cells; observed at 48 and 72 hours post-treatment; read-out: Cytotoxicity: concentration of the compound found to be toxic to the cell
Procedure, shortened: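 HeLa monolayers treated with compound in Eagle's medium with fetal calf serum, then challenged with rhinovirus (RV-1A, RV-2, some RV-5, RV-8, RV-64) or Coxsackie A21. Untreated and virus-free cell controls included.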

Cox A21 = test: Single Oral Dose test in mice challenged IP with Cox A21; format: in vivo, Swiss male mice; conditions: 600 mg/kg P.O. 3 h after IP challenge; >3.84 significant (95% confidence level)
Procedure, shortened: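 Swiss male mice (8-12 g) infected IP with a lethal Cox A21 dose (80-100% mortality within 10 days), then given a single oral dose of compound in 0.5% Methocel 3 h later. Deaths recorded daily for 7-10 days; modified Mantel-Haenzel chi-square versus virus controls, >3.84 significant.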

Hanks Untyped = test: Inhibition of cytopathic effect in WI-38 cell culture tubes, Hanks Untyped; format: cell-based, rhinovirus; conditions: Enterovirus, WI-38 cells, read-out: Inhibition grade, Hanks Untyped; for inhibition at 25 µg/mL: 25 μg/ml
Experimental: (§1) The test compound was dissolved in an appropriate solvent (generally dimethyl sulfoxide) and incubated at 56° C. for at least 15 minutes and this solution was then used to prepare various test solutions having the desired concentration of test compound in preheated WI maintenance medium (49% Eagles, 49% medium 199, 2% fetal calf serum and antibiotics).
(§2) Triplicate cell culture tubes (WI-38 human embryonic lung cell culture tubes) were fed with 1 ml of medium containing the compound at specified concentrations and inoculated with 3-300 TCID50 (3-300 times the tissue culture infective dose 50, i.e., the dose required to infect 50% of the cell cultures tested). Simultaneous viral titrations were performed. The tissue cultures were supplemented with fresh medium when necessary (around 3-4 days) until viral titrations were completed.
(§3) The cell culture tubes were examined dialy for cytopathic effect. […] Comparisons were made at that time with the percentage of cell sheet destruction in tubes containing virus compound mixtures. Observed differences of 75% or more were graded "+", 74-50% as "±", and less than 50% as "-" inhibition.

Rhinovirus Type 6 = test: Inhibition of cytopathic effect in WI-38 cell culture tubes, rhinovirus type 6; format: cell-based; conditions: Enterovirus, WI-38 cells, read-out: Inhibition grade, Rhinovirus Type 6; for inhibition at 25 µg/mL: 25 μg/ml
Experimental: as §1, §2, §3

Rhinovirus Type 8 = test: Inhibition of cytopathic effect in WI-38 cell culture tubes, rhinovirus type 8; format: cell-based; conditions: Enterovirus, WI-38 cells, read-out: Inhibition grade, Rhinovirus Type 8; for inhibition at 25 µg/mL: 25 μg/ml
Experimental: as §1, §2, §3

Rhinovirus Type 10 = test: Inhibition of cytopathic effect in WI-38 cell culture tubes, rhinovirus type 10; format: cell-based; conditions: Enterovirus, WI-38 cells, read-out: Inhibition grade, Rhinovirus Type 10; for inhibition at 25 µg/mL: 25 μg/ml
Experimental: as §1, §2, §3

Rhinovirus Type 13 = test: Inhibition of cytopathic effect in WI-38 cell culture tubes, rhinovirus type 13; format: cell-based; conditions: Enterovirus, WI-38 cells, read-out: Inhibition grade, Rhinovirus Type 13; for inhibition at 25 µg/mL: 25 μg/ml
Experimental: as §1, §2, §3

Rhinovirus Type 17 = test: Inhibition of cytopathic effect in WI-38 cell culture tubes, rhinovirus type 17; format: cell-based; conditions: Enterovirus, WI-38 cells, read-out: Inhibition grade, Rhinovirus Type 17; for inhibition at 25 µg/mL: 25 μg/ml
Experimental: as §1, §2, §3

Rhinovirus Type 19 = test: Inhibition of cytopathic effect in WI-38 cell culture tubes, rhinovirus type 19; format: cell-based; conditions: Enterovirus, WI-38 cells, read-out: Inhibition grade, Rhinovirus Type 19; for inhibition at 25 µg/mL: 25 μg/ml
Experimental: as §1, §2, §3

Rhinovirus Type 21 = test: Inhibition of cytopathic effect in WI-38 cell culture tubes, rhinovirus type 21; format: cell-based; conditions: Enterovirus, WI-38 cells, read-out: Inhibition grade, Rhinovirus Type 21; for inhibition at 25 µg/mL: 25 μg/ml
Experimental: as §1, §2, §3

Rhinovirus Type 29 = test: Inhibition of cytopathic effect in WI-38 cell culture tubes, rhinovirus type 29; format: cell-based; conditions: Enterovirus, WI-38 cells, read-out: Inhibition grade, Rhinovirus Type 29; for inhibition at 25 µg/mL: 25 μg/ml
Experimental: as §1, §2, §3

Rhinovirus Type 39 = test: Inhibition of cytopathic effect in WI-38 cell culture tubes, rhinovirus type 39; format: cell-based; conditions: Enterovirus, WI-38 cells, read-out: Inhibition grade, Rhinovirus Type 39; for inhibition at 25 µg/mL: 25 μg/ml
Experimental: as §1, §2, §3

Rhinovirus Type 56 = test: Inhibition of cytopathic effect in WI-38 cell culture tubes, rhinovirus type 56; format: cell-based; conditions: Enterovirus, WI-38 cells, read-out: Inhibition grade, Rhinovirus Type 56; for inhibition at 25 µg/mL: 25 μg/ml
Experimental: as §1, §2, §3

Rhinovirus Type 59 = test: Inhibition of cytopathic effect in WI-38 cell culture tubes, rhinovirus type 59; format: cell-based; conditions: Enterovirus, WI-38 cells, read-out: Inhibition grade, Rhinovirus Type 59; for inhibition at 25 µg/mL: 25 μg/ml
Experimental: as §1, §2, §3

Rhinovirus Type 60 = test: Inhibition of cytopathic effect in WI-38 cell culture tubes, rhinovirus type 60; format: cell-based; conditions: Enterovirus, WI-38 cells, read-out: Inhibition grade, Rhinovirus Type 60; for inhibition at 25 µg/mL: 25 μg/ml
Experimental: as §1, §2, §3

Rhinovirus Type 64 = test: Inhibition of cytopathic effect in WI-38 cell culture tubes, rhinovirus type 64; format: cell-based; conditions: Enterovirus, WI-38 cells, read-out: Inhibition grade, Rhinovirus Type 64; for inhibition at 25 µg/mL: 25 μg/ml
Experimental: as §1, §2, §3

Rhinovirus Type 68 = test: Inhibition of cytopathic effect in WI-38 cell culture tubes, rhinovirus type 68; format: cell-based; conditions: Enterovirus, WI-38 cells, read-out: Inhibition grade, Rhinovirus Type 68; for inhibition at 25 µg/mL: 25 μg/ml
Experimental: as §1, §2, §3

Rhinovirus Type 74 = test: Inhibition of cytopathic effect in WI-38 cell culture tubes, rhinovirus type 74; format: cell-based; conditions: Enterovirus, WI-38 cells, read-out: Inhibition grade, Rhinovirus Type 74; for inhibition at 25 µg/mL: 25 μg/ml
Experimental: as §1, §2, §3

Rhinovirus Type 75 = test: Inhibition of cytopathic effect in WI-38 cell culture tubes, rhinovirus type 75; format: cell-based; conditions: Enterovirus, WI-38 cells, read-out: Inhibition grade, Rhinovirus Type 75; for inhibition at 25 µg/mL: 25 μg/ml
Experimental: as §1, §2, §3

Rhinovirus Type 81 = test: Inhibition of cytopathic effect in WI-38 cell culture tubes, rhinovirus type 81; format: cell-based; conditions: Enterovirus, WI-38 cells, read-out: Inhibition grade, Rhinovirus Type 81; for inhibition at 25 µg/mL: 25 μg/ml
Experimental: as §1, §2, §3

SMILES | MCC [1] [µg/mL] | Single Oral Dose X^2 (chi-square, deaths vs virus control) (Cox A21) | inhibition at 25 µg/mL (Hanks Untyped) [%] | inhibition at 25 µg/mL (Rhinovirus Type 6) [%] | inhibition at 25 µg/mL (Rhinovirus Type 8) [%] | inhibition at 25 µg/mL (Rhinovirus Type 10) [%] | inhibition at 25 µg/mL (Rhinovirus Type 13) [%] | inhibition at 25 µg/mL (Rhinovirus Type 17) [%] | inhibition at 25 µg/mL (Rhinovirus Type 19) [%] | inhibition at 25 µg/mL (Rhinovirus Type 21) [%] | inhibition at 25 µg/mL (Rhinovirus Type 29) [%] | inhibition at 25 µg/mL (Rhinovirus Type 39) [%] | inhibition at 25 µg/mL (Rhinovirus Type 56) [%] | inhibition at 25 µg/mL (Rhinovirus Type 59) [%] | inhibition at 25 µg/mL (Rhinovirus Type 60) [%] | inhibition at 25 µg/mL (Rhinovirus Type 64) [%] | inhibition at 25 µg/mL (Rhinovirus Type 68) [%] | inhibition at 25 µg/mL (Rhinovirus Type 74) [%] | inhibition at 25 µg/mL (Rhinovirus Type 75) [%] | inhibition at 25 µg/mL (Rhinovirus Type 81) [%] | further results
CS(=O)(=O)c1ccc(Oc2ccc(C(=O)c3ccccc3)cc2)nc1 [Example 31, (4-((5-(methylsulfonyl)-2-pyridinyl)oxy)phenyl)phenylmethanone] | > 100 | 19.383 | ≥ 75 | 50 to 74 | < 50 | ≥ 75 | < 50 | ≥ 75 | ≥ 75 | 50 to 74 | ≥ 75 | < 50 | ≥ 75 | ≥ 75 | ≥ 75 | 50 to 74 | ≥ 75 | ≥ 75 | < 50 | ≥ 75 | 
CCS(=O)(=O)c1ccc(Oc2ccc(Cl)cc2)nc1 [Example 42, 2-(4-chlorophenoxy)-5-(ethylsulfonyl)pyridine] | ≥ 50 | 46.453 |  |  |  |  |  |  |  |  |  |  |  |  |  |  |  |  |  |  | inhibition at 12.5 µg/mL (Hanks Untyped; 12.5 μg/ml): ≥ 75%; inhibition at 12.5 µg/mL (Rhinovirus Type 6; 12.5 μg/ml): ≥ 75%; inhibition at 12.5 µg/mL (Rhinovirus Type 8; 12.5 μg/ml): < 50%; inhibition at 12.5 µg/mL (Rhinovirus Type 10; 12.5 μg/ml): 50 to 74%; inhibition at 12.5 µg/mL (Rhinovirus Type 13; 12.5 μg/ml): < 50%; inhibition at 12.5 µg/mL (Rhinovirus Type 17; 12.5 μg/ml): ≥ 75%; inhibition at 12.5 µg/mL (Rhinovirus Type 19; 12.5 μg/ml): ≥ 75%; inhibition at 12.5 µg/mL (Rhinovirus Type 21; 12.5 μg/ml): 50 to 74%; inhibition at 12.5 µg/mL (Rhinovirus Type 29; 12.5 μg/ml): ≥ 75%; inhibition at 12.5 µg/mL (Rhinovirus Type 39; 12.5 μg/ml): < 50%; inhibition at 12.5 µg/mL (Rhinovirus Type 56; 12.5 μg/ml): 50 to 74%; inhibition at 12.5 µg/mL (Rhinovirus Type 59; 12.5 μg/ml): ≥ 75%; inhibition at 12.5 µg/mL (Rhinovirus Type 60; 12.5 μg/ml): ≥ 75%; inhibition at 12.5 µg/mL (Rhinovirus Type 64; 12.5 μg/ml): ≥ 75%; inhibition at 12.5 µg/mL (Rhinovirus Type 68; 12.5 μg/ml): ≥ 75%; inhibition at 12.5 µg/mL (Rhinovirus Type 74; 12.5 μg/ml): ≥ 75%; inhibition at 12.5 µg/mL (Rhinovirus Type 75; 12.5 μg/ml): 50 to 74%; inhibition at 12.5 µg/mL (Rhinovirus Type 81; 12.5 μg/ml): ≥ 75%
CCS(=O)(=O)c1ccc(Oc2ccc(C(=O)c3ccccc3)cc2)nc1 [Example 43, (4-((5-(ethylsulfonyl)-2-pyridinyl)oxy)phenyl)phenylmethanone] | 25 | 45.207 |  |  |  |  |  |  |  |  |  |  |  |  |  |  |  |  |  |  | inhibition at 3 µg/mL (Hanks Untyped; 3.0 μg/ml): 50 to 74%; inhibition at 3 µg/mL (Rhinovirus Type 6; 3.0 μg/ml): < 50%; inhibition at 3 µg/mL (Rhinovirus Type 8; 3.0 μg/ml): < 50%; inhibition at 3 µg/mL (Rhinovirus Type 10; 3.0 μg/ml): < 50%; inhibition at 3 µg/mL (Rhinovirus Type 13; 3.0 μg/ml): < 50%; inhibition at 3 µg/mL (Rhinovirus Type 17; 3.0 μg/ml): ≥ 75%; inhibition at 3 µg/mL (Rhinovirus Type 19; 3.0 μg/ml): < 50%; inhibition at 3 µg/mL (Rhinovirus Type 21; 3.0 μg/ml): < 50%; inhibition at 3 µg/mL (Rhinovirus Type 29; 3.0 μg/ml): ≥ 75%; inhibition at 3 µg/mL (Rhinovirus Type 39; 3.0 μg/ml): < 50%; inhibition at 3 µg/mL (Rhinovirus Type 56; 3.0 μg/ml): < 50%; inhibition at 3 µg/mL (Rhinovirus Type 59; 3.0 μg/ml): < 50%; inhibition at 3 µg/mL (Rhinovirus Type 60; 3.0 μg/ml): 50 to 74%; inhibition at 3 µg/mL (Rhinovirus Type 64; 3.0 μg/ml): < 50%; inhibition at 3 µg/mL (Rhinovirus Type 68; 3.0 μg/ml): 50 to 74%; inhibition at 3 µg/mL (Rhinovirus Type 74; 3.0 μg/ml): 50 to 74%; inhibition at 3 µg/mL (Rhinovirus Type 75; 3.0 μg/ml): < 50%; inhibition at 3 µg/mL (Rhinovirus Type 81; 3.0 μg/ml): ≥ 75%
CCS(=O)(=O)c1ccc(Oc2ccc(Cl)c(Cl)c2)nc1 [Example 47, 2-(3,4-dichlorophenoxy)-5-(ethylsulfonyl)pyridine] | > 50 | 25.587 | ≥ 75 | 50 to 74 | < 50 | ≥ 75 | < 50 | ≥ 75 | ≥ 75 | ≥ 75 | ≥ 75 | 50 to 74 | ≥ 75 | 50 to 74 | ≥ 75 | ≥ 75 | ≥ 75 | ≥ 75 | < 50 | ≥ 75 | 
